Like-named read-outs stand apart in the source and are kept apart here. Blank lines part the entries; values can stand above or below the molecule they belong to.
Assays:
Human PDE9 [1] = biological target: T1, Human PDE9 (Homo sapiens (Human), UniProt O76083); conditions: background statement, in words; cited from earlier work
Human PDE9 [2] = biological target: T1, Human PDE9; conditions: background statement; read-out: binding constant (Km) of PDE9; cited from earlier work
[3] = human; for CLint: microsomes
[4] = Rat pharmacokinetic evaluation; format: in vivo, SD male rats; conditions: male, Sprague-Dawley, plasma, SD rat; for Tmax / AUC(0-t) / half-life: po, intragastric 5 mg/kg; for Tmax: median; for AUC(0-t): read-out: AUClast po; for half-life: read-out: tz1/2 po (terminal elimination half-life) (converted); for bioavailability: dose iv/po 1/5 mg/kg, read-out: F % (absolute bioavailability)
Description: Experimental Example 4: Rat Pharmacokinetic Evaluation of the Compounds of the Invention
Aim: The in vivo pharmacokinetic parameters of the compounds in SD male rats (purchased from Beijing Vital River Animal Technology Co., Ltd.) were evaluated and bioavailability of the compounds was examined.
Animal Administration and Sample Collection:
The solution of compounds 65, 90, 107, 158 was intragastrically administered to SD rat at a dose of 5.0 mg/kg.
The experimental compound 76 was dissolved in 30% DMF+30% PEG400+40% saline to prepare a solution. The solution of compound 76 was intragastrically administered to SD rat at a dose of 5.0 mg/kg.
The experimental compound 76 was dissolved in 30% DMF+30% PEG400+40% saline to prepare a solution.
The experimental compounds 84 and 96 were dissolved in 5% DMSO+10% PEG400+85% (28% HP-β-CD) saline to prepare a solution. The solution of compounds 84 and 96 was intragastrically administered to SD rat at a dose of 5.0 mg/kg.
The experimental compounds 84 and 96 were dissolved in 5% DMSO+10% PEG400+85% (28% HP-β-CD) saline to prepare a solution.
The animals were fixed. The tail was heated with a water bath at 10 min before each time point. About 100 μL of blood from tail vein was collected, and then placed in an anti-coagulation tube containing EDTA-K2 after collection. Blood samples were centrifuged at 8000 rpm at 4° C. for 6 min to obtain plasma samples.
The concentration of test sample was output using Analyst 1.6.1 from AB SCIEX.

[5] = Rat pharmacokinetic evaluation; format: in vivo, SD male rats; conditions: SD rat, intravenous bolus 1 mg/kg; for AUC(0-t) / clearance / half-life: male, Sprague-Dawley, plasma; for AUC(0-t): read-out: AUClast iv; for clearance: read-out: Cl_obs iv (clearance rate) (converted); for half-life: read-out: tz1/2 iv (terminal elimination half-life) (converted)
in vitro = conditions: human, microsomes
PDE1A1 Enzyme = PDE1A1 Enzyme (Homo sapiens (Human), UniProt P54750); assay: PDE enzymology evaluation, PDE1A1; format: biochemical
Sequence of PDE1A1 Enzyme (P54750 whole entry, change not shown): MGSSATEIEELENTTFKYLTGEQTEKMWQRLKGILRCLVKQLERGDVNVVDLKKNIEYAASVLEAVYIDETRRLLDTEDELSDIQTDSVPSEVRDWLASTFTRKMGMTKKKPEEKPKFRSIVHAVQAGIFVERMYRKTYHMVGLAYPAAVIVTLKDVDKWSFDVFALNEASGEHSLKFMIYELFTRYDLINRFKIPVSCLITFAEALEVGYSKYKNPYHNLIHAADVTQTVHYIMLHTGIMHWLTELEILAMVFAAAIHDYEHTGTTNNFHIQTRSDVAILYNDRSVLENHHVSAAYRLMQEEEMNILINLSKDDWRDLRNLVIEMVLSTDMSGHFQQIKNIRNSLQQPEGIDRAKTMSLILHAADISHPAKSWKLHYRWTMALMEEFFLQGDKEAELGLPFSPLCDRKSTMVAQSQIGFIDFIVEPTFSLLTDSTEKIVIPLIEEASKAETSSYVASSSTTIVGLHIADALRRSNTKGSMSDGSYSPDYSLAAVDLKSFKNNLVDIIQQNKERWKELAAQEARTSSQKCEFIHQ
Description: (§1) Experimental Example 5: PDE Enzymology Evaluation Method
(§2) Test substance: Compounds of the invention, prepared by the corresponding examples of the invention
(§3) 1. Experimental materials and instruments
PDE1A1 Enzyme (BPS, Cat. No. 60010)
(§4) 2. Experimental procedure
(§5) Preparation of the compounds: the compounds were prepared into 10 mM compound stock solution in DMSO for long-term storage. The obtained compound stock solution was diluted in 100 times with DMSO to obtain 100 μM compound working mother solution, and then the compound working mother solution was diluted in 3 times with DMSO to obtain 10 concentration gradients of diluted compound mother liquor (100×).
(§6) Incubation with the compounds: A very small amount of liquid pipetting system Echo was used to pipette the diluted compound mother liquor into a 384-well plate. 200 nL diluted compound mother liquor and 10 μL PDE1A1, PDE3A, PDE5A1 and PDE8A1 enzyme solution were added to each compound well. […] In the maximum reading hole (Max), the compound was replaced by solvent. In the minimum reading hole (Min), the compound and enzyme solution were replaced by solvent.
(§7) Detection: Fluorescence readings (F) at 480 nm/535 nm were detected using a microplate reader.
(§8) Calculation: The inhibition rate was calculated as follows, and IC50 was fitted using GraphPad Prism 5.0: […]

PDE3A Enzyme = PDE3A Enzyme (Homo sapiens (Human), UniProt Q14432); assay: PDE enzymology evaluation, PDE3A; format: biochemical
Sequence of PDE3A Enzyme (Q14432 whole entry): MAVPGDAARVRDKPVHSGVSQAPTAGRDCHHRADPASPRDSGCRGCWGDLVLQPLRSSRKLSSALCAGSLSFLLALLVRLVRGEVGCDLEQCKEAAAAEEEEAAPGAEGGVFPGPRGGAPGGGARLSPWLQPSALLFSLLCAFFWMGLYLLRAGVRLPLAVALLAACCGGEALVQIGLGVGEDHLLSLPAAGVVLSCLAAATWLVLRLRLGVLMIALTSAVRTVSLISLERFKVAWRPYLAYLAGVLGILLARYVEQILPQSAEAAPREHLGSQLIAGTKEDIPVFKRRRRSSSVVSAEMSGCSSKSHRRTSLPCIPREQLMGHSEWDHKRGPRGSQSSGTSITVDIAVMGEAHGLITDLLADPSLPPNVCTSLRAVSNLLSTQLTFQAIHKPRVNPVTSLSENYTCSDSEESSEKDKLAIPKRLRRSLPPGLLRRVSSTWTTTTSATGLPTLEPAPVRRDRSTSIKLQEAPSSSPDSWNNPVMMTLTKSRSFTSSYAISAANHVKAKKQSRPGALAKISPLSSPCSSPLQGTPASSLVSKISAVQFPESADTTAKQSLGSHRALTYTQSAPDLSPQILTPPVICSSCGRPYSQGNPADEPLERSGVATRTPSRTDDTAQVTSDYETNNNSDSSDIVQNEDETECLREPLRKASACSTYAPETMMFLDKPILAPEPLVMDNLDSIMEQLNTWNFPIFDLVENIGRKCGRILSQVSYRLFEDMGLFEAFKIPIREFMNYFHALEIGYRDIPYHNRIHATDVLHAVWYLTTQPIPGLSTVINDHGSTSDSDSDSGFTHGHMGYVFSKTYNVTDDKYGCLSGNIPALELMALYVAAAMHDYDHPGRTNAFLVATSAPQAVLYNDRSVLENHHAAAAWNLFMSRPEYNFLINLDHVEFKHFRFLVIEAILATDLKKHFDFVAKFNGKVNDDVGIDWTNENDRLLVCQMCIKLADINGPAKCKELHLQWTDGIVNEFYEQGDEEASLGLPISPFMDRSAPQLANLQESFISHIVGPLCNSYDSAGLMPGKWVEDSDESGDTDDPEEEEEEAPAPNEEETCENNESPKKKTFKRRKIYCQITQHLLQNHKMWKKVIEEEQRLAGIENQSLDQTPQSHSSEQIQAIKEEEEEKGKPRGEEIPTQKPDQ
Description: as §1, §2, §3
PDE3A Enzyme (BPS, Cat. No. 60030)
as §4, §5, §6, §7, §8

PDE8A1 Enzyme = PDE8A1 Enzyme (Homo sapiens (Human), UniProt O60658); assay: PDE enzymology evaluation, PDE8A1; format: biochemical
Sequence of PDE8A1 Enzyme (O60658 whole entry): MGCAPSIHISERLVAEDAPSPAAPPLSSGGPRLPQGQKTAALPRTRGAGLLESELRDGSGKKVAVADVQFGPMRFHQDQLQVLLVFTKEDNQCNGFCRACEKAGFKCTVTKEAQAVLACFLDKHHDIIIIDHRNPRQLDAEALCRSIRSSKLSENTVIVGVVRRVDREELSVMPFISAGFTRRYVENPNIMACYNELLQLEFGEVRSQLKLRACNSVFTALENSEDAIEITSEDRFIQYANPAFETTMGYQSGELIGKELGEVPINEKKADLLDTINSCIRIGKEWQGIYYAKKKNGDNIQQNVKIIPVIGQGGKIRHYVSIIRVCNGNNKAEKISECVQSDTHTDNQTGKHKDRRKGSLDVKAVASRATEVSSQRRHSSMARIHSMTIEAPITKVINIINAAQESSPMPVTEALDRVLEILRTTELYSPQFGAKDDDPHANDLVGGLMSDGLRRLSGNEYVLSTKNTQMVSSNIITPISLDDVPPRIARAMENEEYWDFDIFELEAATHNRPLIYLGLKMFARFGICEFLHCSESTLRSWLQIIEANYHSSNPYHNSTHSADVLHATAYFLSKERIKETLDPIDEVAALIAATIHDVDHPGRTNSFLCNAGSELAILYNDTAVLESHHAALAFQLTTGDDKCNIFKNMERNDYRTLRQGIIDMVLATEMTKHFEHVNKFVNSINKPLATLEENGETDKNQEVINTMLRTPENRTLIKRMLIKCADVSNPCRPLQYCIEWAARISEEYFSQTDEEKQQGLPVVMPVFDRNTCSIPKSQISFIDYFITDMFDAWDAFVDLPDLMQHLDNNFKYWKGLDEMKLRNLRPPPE
Description: as §1, §2, §3
PDE8A1 Enzyme (BPS, Cat. No. 60080)
as §4, §5, §6, §7, §8

PDE5A1 Enzyme = PDE5A1 Enzyme (Homo sapiens (Human), UniProt O76074); assay: PDE enzymology evaluation, PDE5A1; format: biochemical
Description: as §1, §2, §3
PDE5A1 Enzyme (BPS, Cat. No. 60050)
as §4, §5, §6, §7, §8

[6] = Canine pharmacokinetic evaluation; format: in vivo; conditions: Beagle dogs
Source text: 1. Animal Administration and Sample Collection
2. Sample Analysis Method
3. Data Processing Method

T1 sequence (O76083 whole entry): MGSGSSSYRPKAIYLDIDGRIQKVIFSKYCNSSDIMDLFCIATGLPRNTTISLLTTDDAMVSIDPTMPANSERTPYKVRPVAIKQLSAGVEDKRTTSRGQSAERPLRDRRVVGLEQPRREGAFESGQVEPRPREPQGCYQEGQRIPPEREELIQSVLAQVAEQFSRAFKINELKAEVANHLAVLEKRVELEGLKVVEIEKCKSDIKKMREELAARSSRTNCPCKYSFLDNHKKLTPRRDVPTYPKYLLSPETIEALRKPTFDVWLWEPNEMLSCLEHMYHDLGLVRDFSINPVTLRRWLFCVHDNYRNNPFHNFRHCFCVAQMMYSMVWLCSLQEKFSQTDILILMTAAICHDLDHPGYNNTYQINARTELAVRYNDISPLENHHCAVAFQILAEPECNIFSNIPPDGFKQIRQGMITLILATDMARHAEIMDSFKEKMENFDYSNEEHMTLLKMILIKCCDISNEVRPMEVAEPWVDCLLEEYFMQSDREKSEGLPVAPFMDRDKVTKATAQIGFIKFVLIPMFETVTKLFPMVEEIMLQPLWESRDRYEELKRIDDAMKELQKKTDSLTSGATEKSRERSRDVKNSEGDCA

SMILES: CC(=O)Nc1ccc(-c2c[nH]c(=O)cn2)cc1 [SKF94120]
inhibition activity on PDE9 (Human PDE9 [1]): no or very low inhibition activity

SMILES: Nc1nc2c(ncn2[C@@H]2O[C@@H]3COP(=O)(O)O[C@H]3[C@H]2O)c(=O)[nH]1 [cGMP, cyclic guanosine monophosphate]
Km (Human PDE9 [2]): 0.17 µM

SMILES: CCOC(=O)C1=C[C@]2(CC)CCCN3CCc4c(n1c1ccccc41)[C@@H]32 [vinpocetine]
inhibition activity on PDE9 (Human PDE9 [1]): no or very low inhibition activity

SMILES: Nc1ncnc2c1ncn2[C@@H]1O[C@@H]2COP(=O)(O)O[C@H]2[C@H]1O [cAMP, cyclic adenosine monophosphate]
Km (Human PDE9 [2]): 230 µM

SMILES: CC(C)Cn1c(=O)n(C)c(=O)c2[nH]cnc21 [IBMX]
inhibition activity on PDE9 (Human PDE9 [1]): no or very low inhibition activity

SMILES: N#Cc1c(N2CCC3(CC2)CC3)c2cc(C(O)C3CC3)ncc2[nH]c1=O (centres unmarked) [Compound 90, 6-(cyclopropyl (hydroxy)methyl)-2-oxo-4-(6-azaspiro[2.5]octane-6-yl)-1,2-dihydro-1,7-naphthyridin-3-carbonitrile]
Original drug residual % at 60 min [3]: 80.5%
k [3]: 0.0037 min⁻¹
CLint [3]: 0.0074 mL · min^−1 · mg^−1 proteins
Tmax [4]: 1 h
AUC(0-t) [4]: 3700 ng·h/mL
half-life [4]: 4.49 h
bioavailability [4]: 47.4%
Vz_obs iv (apparent distribution volume) [5]: 1.38 L/kg
AUC(0-t) [5]: 1590 ng·h/mL
clearance [5]: 10.5 mL/min/kg
half-life [5]: 1.48 h
half-life (in vitro): 3.12 h

IC50 (PDE1A1 Enzyme): 4920 nM
IC50 (PDE3A Enzyme): > 10000 nM
IC50 (PDE8A1 Enzyme): > 10000 nM
IC50 (PDE5A1 Enzyme): > 10000 nM
SMILES: N#Cc1c(N2CCC3(CC2)COC3)c2ccncc2[nH]c1=O [Compound 24, 2-oxo-4-(2-oxa-7-azaspiro[3.5]nonane-7-yl)-1,2-dihydro-1,7-naphthyridin-3-carbonitrile]

SMILES: CCc1cc2c(N3CCC4(CC3)CC4)c(C#N)c(=O)[nH]c2cn1 [Compound 76, 6-ethyl-2-oxo-4-(6-azaspiro[2.5]octane-6-yl)-1,2-dihydro-1,7-naphthyridin-3-carbonitrile]
Original drug residual % at 60 min [3]: 87.3%
k [3]: 0.0015 min⁻¹
CLint [3]: 0.0030 mL · min^−1 · mg^−1 proteins
Tmax [4]: 1 h
AUC(0-t) [4]: 5750 ng·h/mL
half-life [4]: 9.6 h
bioavailability [4]: 113%
Vz_obs iv (apparent distribution volume) [5]: 1.25 L/kg
AUC(0-t) [5]: 1010 ng·h/mL
clearance [5]: 17.3 mL/min/kg
half-life [5]: 0.89 h
half-life (in vitro): 7.7 h

SMILES: OCCN(CCO)c1nc(N2CCCCC2)c2nc(N(CCO)CCO)nc(N3CCCCC3)c2n1 [dipyridamole]
inhibition activity on PDE9 (Human PDE9 [1]): no or very low inhibition activity

SMILES: N#Cc1c(N2CCC3(CC2)CC3)c2ccncc2[nH]c1=O [Compound 25, 2-oxo-4-(6-azaspiro[2.5]octane-6-yl)-1,2-dihydro-1,7-naphthyridin-3-carbonitrile]
IC50 (PDE1A1 Enzyme): > 3000 nM
Original drug residual % at 60 min [3]: 87.5%
k [3]: 0.0022 min⁻¹
CLint [3]: 0.0044 mL · min^−1 · mg^−1 proteins
Tmax [4]: 1 h
AUC(0-t) [4]: 2050 ng·h/mL
half-life [4]: 1.4 h
bioavailability [4]: 74.2%
Vz_obs iv (apparent distribution volume) ([6]; intravenous bolus 1 mg/kg, n = 3): 7.06 L/kg
Tmax ([6]; dog, plasma, po, intragastric 2 mg/kg, n = 3, median): 0.5 h
AUC(0-inf) ([6]; dog, plasma, po, intragastric 2 mg/kg, n = 3, read-out: AUCinf po): 4450 ng·h/mL
half-life ([6]; dog, plasma, po, intragastric 2 mg/kg, n = 3, read-out: tz1/2 po (terminal elimination half-life) (converted)): 9.45 h
bioavailability ([6]; dog, plasma, dose iv/po 1/2 mg/kg, n = 3): 99.1%
AUC(0-inf) ([6]; dog, plasma, intravenous bolus 1 mg/kg, n = 3, read-out: AUCinf iv): 2240 ng·h/mL
clearance ([6]; dog, plasma, intravenous bolus 1 mg/kg, n = 3, read-out: Cl_obs iv (clearance rate) (converted)): 7.83 mL/min/kg
half-life ([6]; dog, plasma, intravenous bolus 1 mg/kg, n = 3, read-out: tz1/2 iv (terminal elimination half-life) (converted)): 10.4 h
IC50 (PDE3A Enzyme): > 3000 nM
IC50 (PDE8A1 Enzyme): > 3000 nM
IC50 (PDE5A1 Enzyme): > 3000 nM
Vz_obs iv (apparent distribution volume) [5]: 1.27 L/kg
AUC(0-t) [5]: 574 ng·h/mL
clearance [5]: 29.3 mL/min/kg
half-life [5]: 0.51 h
half-life (in vitro): 5.25 h

SMILES: COc1ccc(C2CNC(=O)C2)cc1OC1CCCC1 (centres unmarked) [rolipram]
inhibition activity on PDE9 (Human PDE9 [1]): no or very low inhibition activity
